Our source for the typical duration values is patent US6540991B2, “Stabilized active materials” (3M Innovative Properties Company, priority 2001, dated 2003).

The nature of the data set: typical duration of codlemone in the intended environment (stabilization of insect pheromone). It is filed as physicochemical. Conditions: dissipation into the intended environment; codling moth pheromone, nonstabilized vs stabilized with 2,2′-Methylenebis(6-t-butyl-p-cresol). The text has this:
Because the insect pheromone can be provided in a stabilized format, a long lasting delivery system may be engineered to provide slow release over a long duration of time. The stabilized format allows for a slow release from a single application without spiking as may be obtainable from multiple applications. “Spiking” as used herein may be triggered by instantaneous or short-term release of the active agents from the shell. Since a mating cycle of a given insect pest may last up to 4-6 weeks in length, the slow release of an insect pheromone may be desirable to provide effective control of insect mating over the duration. Thus, the present invention may be used to control the release rate of insect pheromones thereby effectively controlling and disrupting the mating behavior of the species in a particular intended environment. For example, an insect pheromone for codling moth can be made to steadily dissipate into the intended environment over the duration of a mating cycle for codling moth. A typical duration for a nonstabilized codlemone, the insect pheromone for the codling moth is less than 1 week, as against about 6 weeks for codlemone stabilized according to the present invention.

Consider `C/C=C/C=C/CCCCCCCO` [nonstabilized codlemone, E,E-8,10 C12 alcohol], for which the typical duration result is “less than 1 week”.
